Experimental data taken from patent publication US6458337B1, “Diagnostic imaging contrast agent with improved in serum relaxivity” (Dibra S.p.A, priority 1996, dated 2002).

How the values were obtained:
[1] = Relaxivity (r1, r2) in saline; type: physicochemical; settings: NaCl 0.15 M in water, pH 7.3, 20 MHz, 39° C.
Text: (§1) Relaxivity values of the contrast agent of the present invention have been tested either in saline or in human serum obtained by Seronorm™ Human, freeze-dried human serum produced by Nycomed Pharma AS, Oslo, Norway. Serum obtained from said Seronorm™ is substantially equivalent to the fresh one, so its use in the relaxivity determination grants a good picture of the “in vivo” behaviour and, further, an excellent reproducibility of this test.

[2] = Relaxivity (r1, r2) in reconstituted human serum (Seronorm™ Human); type: physicochemical; settings: Between 0 and 1 mM (Seronorm™ Human), 20 MHz, 39° C.
Text: as §1
The compounds object of the present invention are characterised by very high r1 and r2 relaxivity values. When measured in Seronorm™ Human at 20 MHz, at a temperature of 39° C., and at a concentration comprised from 0 to 1 mM, compounds of the present invention usually have r1 relaxivity equal to or, preferably, higher than 15^s−1mM^−1, thus confirming the formation of unexpectedly strong non-covalent bonds with serum proteins. […] Last, significative amounts of the preferred compounds of the invention have also been found in the urines, showing that, thanks to their binding to HSA, the same are very promising as blood pool diagnostic agents.

- Relaxivity Saline r1 [1]: 5.70 mM⁻¹ s⁻¹
- Relaxivity Serum r1 [2]: 20.1 mM⁻¹ s⁻¹
SMILES: O=C(O)CN(CCN(CCN(CC(=O)O)CC(=O)O)C(CCCCNC(=O)C(c1ccccc1)c1ccccc1)C(=O)O)CC(=O)O (centres unmarked)
